{
  "source": "paper PMC8752738",
  "about": "“A propolis-derived small molecule ameliorates metabolic syndrome in obese mice by targeting the CREB/CRTC2 transcriptional complex” (Nature Communications, 2022)",
  "key": {"FGF21": {"system": "FGF21", "assay": "Immunoblotting of plasma and liver FGF21", "assay_type": "in vivo, mouse"}, "[1]": {"system": "gluconeogenic and lipogenic gene mRNA in primary hepatocytes", "assay": "Quantitative PCR of gene expression in primary hepatocytes", "assay_type": "cell-based, mouse", "parameters": "key to Lxra mRNA levels: mRNA level normalized to ribosomal L32 mRNA (internal control); key to Crtc2 mRNA levels / Srebf-1c mRNA levels / Srebf-2 mRNA levels / mRNA levels of G6pc / mRNA levels of CREB / mRNA levels of CRTC2: relative mRNA level, normalized to ribosomal L32", "conditions": "for Lxra mRNA levels, Mean / Srebf-2 mRNA levels, Mean / Srebf-1c mRNA levels, Mean / Crtc2 mRNA levels, Mean / Crtc2 mRNA levels / Lxra mRNA levels / Srebf-1c mRNA levels / Srebf-2 mRNA levels: Figure 7f; for Lxra mRNA levels, Mean / Srebf-2 mRNA levels, Mean / Srebf-1c mRNA levels, Mean / Crtc2 mRNA levels, Mean: mean of N=3; for Crtc2 mRNA levels / Lxra mRNA levels / Srebf-1c mRNA levels / Srebf-2 mRNA levels / mRNA levels of G6pc / mRNA levels of Pck1: single replicates; for mRNA of G6pc, mean / mRNA of Pck1, mean / mRNA levels of G6pc / mRNA levels of Pck1: Figure 9d; for mRNA of G6pc, mean / mRNA of Pck1, mean: group mean, N 6; for mRNA levels of CREB / mRNA levels of CRTC2 / mRNA levels of CREB, group mean (Mean 2) / mRNA levels of CRTC2, group mean (Mean 2): Supp. Fig.10 d; for mRNA levels of CREB / mRNA levels of CRTC2: individual replicates; for mRNA levels of CREB, group mean (Mean 2) / mRNA levels of CRTC2, group mean (Mean 2): n=6", "method": "Total RNA from cells and tissues was extracted by Trizol (Invitrogen) and reverse-transcribed into cDNA using the prime script RT reagent kit with gDNA eraser (Takara). The mRNA levels were determined using the SYBR-green PCR kit (Takara) with ABIPRISM 7900HT Sequence detector (ABI) according to the manufacturer’s protocol. The quantitative qPCR primers used in this work are listed in Supplementary Table 1. Ribosomal L32 mRNA levels were used as an internal control."}, "LXRα": {"system": "LXRα", "assay": "Immunoblot of LXRα in insulin-stimulated primary hepatocytes", "assay_type": "cell-based, mouse", "conditions": "for relative LXRa protein: individual replicates, Supp. Fig.6 b; for relative LXRa protein, mean: N=3", "method": "3 Supplementary Figure 6. APC inhibited transcription induced by half-CRE in the promoters of\n5 a) Immunoblot of LXRa protein levels in primary hepatocytes stimulated with insulin (100 nM) for\n6 indicated times (0–18 h). One presentative result from three experiments is shown here. Relative\n7 LXRa protein level normalized to GAPDH shown as a bar graph (b). Data are represented as\n8 mean ± SEM (n=3 per treatment). *, p < 0.05; **, p < 0.01; p values were determined by two-way […]\n(1 picture or pasted object on this page, not shown here)"}, "[2]": {"molecular_target": "T1, GST-CREB / HA-P300 interaction (Homo sapiens, UniProt P16220)", "T1 construct": "made in house; host or cells: GST-CREB beads (pGEX5X-1); HA-P300 expressed in HEK293T cells", "assay": "GST-CREB pull-down of HA-P300 from HEK293T lysate", "assay_type": "biochemical", "conditions": "APC 10 μM", "method": "1 Supplementary Figure 2.\n2 a) Immunoblot of HA-P300 recovered from HEK293T cell lysate using GST-CREB beads. APC\n3 (10 μM) was incubated with cells for 1-h before FKS (10 nM) stimulation and was included in the\n4 following pull-down mixtures (n=3). One of two independent experiments presented here.\n5 b) Immunoblot for recovered GFP-CRTC1 or (c) GFP-CRTC3 immunoprecipitated by MYC-CREB\n6 from overexpression HEK293T cell line. APC (10 μM) was incubated with cells for 1-h before FKS\n7 (10 nM) stimulation and was included in the following pull-down mixtures. One of two independent\n8 experiments presented here.\n9 d) SPR sonogram traces of APC binding with HIS-CREB proteins immobilized to NTA-chip. The\n10 concentration series of APC was as indicated.\n11 e) SPR sonogram traces of APC flowing through HIS-CRTC2-S171A proteins immobilized on\n12 NTA-chip. The concentration of APC was as indicated.\n13 f) The luciferase enzymatic activity of HEK293T incubated with APC. Cells over-expressed\n14 luciferase CRE-Luc reporter and were stimulated by FSK (10 nM) for 5-h before lysis, which was\n15 then incubated with APC (concentration indicated) for 30 min before luciferase activity determination\n16 (n=3 per treatment). Data are represented as mean ± SEM. *, p < 0.05; **, p < 0.01; p values were\n17 determined by one-way ANOVA followed Dunnett’s multiple comparisons test. […]"}},
  "note": "Where “and” joins values, the source holds several entries; their conditions need not be identical. Equal values may be shown once.",
  "data": [
    {"smiles": "CC(C)=CCc1cc(C=CC(=O)O)cc(CC=C(C)C)c1O", "note": "[APC, 3,5-diprenyl-4-hydroxycinnamic acid]", "values": [
      {"measurement": "liver FGF21 in WT, group mean (Mean 2)", "setting": "FGF21; Supp. Fig.10 f down, WT mice, n=3, VEH mean 1.024", "result": 2.405},
      {"measurement": "Bands density of FGF21 in the liver", "setting": "FGF21; Supp. Fig.10 f down, WT mice, oral, individual replicates, Veh about 1.02", "result": "2.277 and 2.103 and 2.8341"},
      {"measurement": "Bands density, plasma FGF21 in WT", "setting": "FGF21; Supp. Fig.10 f up, WT mice, individual replicates, VEH about 1.08", "result": "1.716 and 1.667 and 1.521"},
      {"measurement": "Bands density, plasma FGF21 in WT, group mean (Mean 2)", "setting": "FGF21; Supp. Fig.10 f up, WT mice, n=3, VEH mean 1.077", "result": 1.634},
      {"measurement": "plasma and liver FGF21", "setting": "FGF21; wild-type control group, oral 20 mg/kg, 3 weeks", "result": "increased"},
      {"measurement": "Lxra mRNA levels, Mean", "setting": "[1]; LV-CRTC2(S171A), Ctrl mean 1.393", "result": 0.7111},
      {"measurement": "Srebf-2 mRNA levels, Mean", "setting": "[1]; LV-CRTC2(S171A), Ctrl mean 1.711", "result": 0.86},
      {"measurement": "Srebf-1c mRNA levels, Mean", "setting": "[1]; LV-CRTC2(S171A), Ctrl mean 1.819", "result": 1.166},
      {"measurement": "Crtc2 mRNA levels, Mean", "setting": "[1]; LV-CRTC2(S171A), Ctrl mean 153.3", "result": 159.3},
      {"measurement": "Crtc2 mRNA levels", "setting": "[1]; LV-Crtc2-S171A", "result": "189.700 and 115.000 and 173.200"},
      {"measurement": "Lxra mRNA levels", "setting": "[1]; LV-Crtc2-S171A", "result": "0.732 and 0.747 and 0.654"},
      {"measurement": "Srebf-1c mRNA levels", "setting": "[1]; LV-Crtc2-S171A", "result": "1.132 and 1.102 and 1.263"},
      {"measurement": "Srebf-2 mRNA levels", "setting": "[1]; LV-Crtc2-S171A", "result": "0.860 and 0.819 and 0.901"},
      {"measurement": "Crtc2 mRNA levels, Mean", "setting": "[1]; LV-GFP, Ctrl mean 0.9233", "result": 1.106},
      {"measurement": "Lxra mRNA levels, Mean", "setting": "[1]; LV-GFP, Ctrl mean 0.93", "result": 0.8542},
      {"measurement": "Srebf-2 mRNA levels, Mean", "setting": "[1]; LV-GFP, Ctrl mean 0.9967", "result": 1.087},
      {"measurement": "Srebf-1c mRNA levels, Mean", "setting": "[1]; LV-GFP, Ctrl mean 1.053", "result": 0.9578},
      {"measurement": "Crtc2 mRNA levels", "setting": "[1]; LV-Gfp", "result": "1.240 and 0.976 and 1.101"},
      {"measurement": "Lxra mRNA levels", "setting": "[1]; LV-Gfp", "result": "0.950 and 0.709 and 0.904"},
      {"measurement": "Srebf-1c mRNA levels", "setting": "[1]; LV-Gfp", "result": "0.940 and 1.083 and 0.850"},
      {"measurement": "Srebf-2 mRNA levels", "setting": "[1]; LV-Gfp", "result": "1.040 and 1.162 and 1.060"},
      {"measurement": "mRNA of G6pc, mean", "setting": "[1]; +Gluc", "result": 73.01},
      {"measurement": "mRNA of Pck1, mean", "setting": "[1]; +Gluc", "result": 64.35},
      {"measurement": "mRNA levels of G6pc", "setting": "[1]; +Gluc", "result": "67.250 and 68.919 and 73.819 and 74.050 and 79.623 and 74.414"},
      {"measurement": "mRNA levels of Pck1", "setting": "[1]; +Gluc", "result": "68.035 and 58.064 and 57.318 and 65.734 and 69.952 and 67.024"},
      {"measurement": "mRNA of G6pc, mean", "setting": "[1]; -Gluc", "result": 0.2875},
      {"measurement": "mRNA of Pck1, mean", "setting": "[1]; -Gluc", "result": 0.3152},
      {"measurement": "mRNA levels of G6pc", "setting": "[1]; -Gluc", "result": "0.207 and 0.251 and 0.273 and 0.385 and 0.234 and 0.375"},
      {"measurement": "mRNA levels of Pck1", "setting": "[1]; -Gluc", "result": "0.283 and 0.267 and 0.371 and 0.342 and 0.306 and 0.322"},
      {"measurement": "mRNA levels of CREB", "setting": "[1]; +Gluc", "result": "0.685 and 0.852 and 0.9121 and 0.8012 and 0.8061 and 0.6905"},
      {"measurement": "mRNA levels of CRTC2", "setting": "[1]; +Gluc", "result": "0.8083 and 0.8216 and 1.1926 and 0.9078 and 0.9957 and 1.2399"},
      {"measurement": "mRNA levels of CREB, group mean (Mean 2)", "setting": "[1]; +Gluc, Ctrl mean 0.8616", "result": 0.7912},
      {"measurement": "mRNA levels of CRTC2, group mean (Mean 2)", "setting": "[1]; +Gluc, Ctrl mean 0.8879", "result": 0.9943},
      {"measurement": "mRNA levels of CREB", "setting": "[1]; -Gluc", "result": "0.9172 and 0.8231 and 0.8735 and 0.9451 and 0.728 and 1.0773"},
      {"measurement": "mRNA levels of CRTC2", "setting": "[1]; -Gluc", "result": "1.0775 and 1.0279 and 1.0015 and 1.1906 and 1.0107 and 1.2086"},
      {"measurement": "mRNA levels of CREB, group mean (Mean 2)", "setting": "[1]; -Gluc, Ctrl mean 0.9538", "result": 0.894},
      {"measurement": "mRNA levels of CRTC2, group mean (Mean 2)", "setting": "[1]; -Gluc, Ctrl mean 1.009", "result": 1.086},
      {"measurement": "mRNA levels of Lxrα, Srebf1 and Srebf2 with overexpressed Crtc2-S171A", "setting": "[1]; primary hepatocytes, APC 10 μM, 8-h", "result": "effectively reduced"},
      {"measurement": "mRNA accumulation of G6pc, Pck1 and Pgc-1α induced by glucagon", "setting": "[1]; primary hepatocytes, APC 1, 5 or 50 μM", "result": "remarkably decreased"},
      {"measurement": "relative LXRa protein", "setting": "LXRα; Insulin 0h", "result": "101.09 and 100.00 and 97.00"},
      {"measurement": "relative LXRa protein, mean", "setting": "LXRα; Insulin 0h", "result": 99.36},
      {"measurement": "relative LXRa protein", "setting": "LXRα; Insulin 3h", "result": "65.50 and 69.00 and 75.00"},
      {"measurement": "relative LXRa protein, mean", "setting": "LXRα; Insulin 3h", "result": 69.83},
      {"measurement": "relative LXRa protein, Mean Diff. 3h vs. 0h", "setting": "LXRα; Insulin 3h minus 0h, within APC group", "result": -29.53},
      {"measurement": "relative LXRa protein", "setting": "LXRα; Insulin 18h", "result": "33.42 and 31.00 and 29.00"},
      {"measurement": "relative LXRa protein, mean", "setting": "LXRα; Insulin 18h", "result": 31.14},
      {"measurement": "relative LXRa protein, Mean Diff. 18h vs. 0h", "setting": "LXRα; Insulin 18h minus 0h, within APC group", "result": -68.22},
      {"measurement": "LXRα protein levels", "setting": "LXRα; primary hepatocytes, insulin treatment 18-h", "result": "significantly reduced"},
      {"measurement": "association of CREB with P300", "setting": "[2]", "result": "little effect"}
    ]}
  ]
}
